The record followed here is US20250353891A1 (MEDIMMUNE LIMITED, priority 2022, published 2025).

Starred links: 1 amine or outer side, 2 acyl side, 3 side chain; linkers in the order of their positions; H or OH if unused. Non-standard residues stand in square brackets, D forms with d. Residues, ends and D or L forms follow the SMILES beside them. Groups on a side chain read outwards from the residue. *: point of attachment. C18 diacid = O=C(O)CCCCCCCCCCCCCCCCC(=O)*; γGlu = O=C(O)[C@H](CCC(=O)[*:2])N[*:1]; Palmitoyl = CCCCCCCCCCCCCCCC(=O)*; αMeF = C[C@](N)(Cc1ccccc1)C(=O)O; PEG2 = NCCOCCOCCC(=O)O; AEEA = NCCOCCOCC(=O)O; Aib = CC(C)(N)C(=O)O

Test [1] concerns the target human glucagon receptor (hGCGR) (Homo sapiens, UniProt P47871). Briefly: cAMP production (HTRF) in CHO cells expressing hGCGR. The arrangement: expressed in transfected cells. It is filed as cell-based. The conditions noted are these: Table 6, peptides modified at position 17; cAMP in CHO hGCGR cells; geometric mean; read-out: hGluc-R EC50. The procedure, abridged:
(§1)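 Read-out: HTRF cAMP (anti-cAMP cryptate donor, cAMP-d2 acceptor in conjugate/lysis buffer), converted to % Delta F and fitted by 4-parameter logistic for EC50. Cell densities were 1×10^5 cells/mL (hGLP-1R) or 2×10^5 cells/mL (hGCGR). Stimulation lasted 30 min at room temperature.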

For test [2], the target named is human GLP-1 receptor (hGLP-1R) (Homo sapiens, UniProt P43220). The test can be described thus: cAMP production (HTRF) in CHO cells expressing hGLP-1R. It is filed as cell-based. The arrangement: expressed in transfected cells. The following applies: for EC50: Table 6, peptides modified at position 17, cAMP in CHO hGLP-1R cells, geometric mean, read-out: hGLP-1R EC50; for % Relative Potency Ratio: Table 6, % GLP-1R activity relative to GLP-1 / % GlucR activity relative to glucagon. The gist of the method: as §1
On the technique in general: Cyclic AMP is a second messenger, typically raised through Gs and lowered through Gi signalling.

Chain of human GLP-1 receptor (hGLP-1R) (P43220 24-463): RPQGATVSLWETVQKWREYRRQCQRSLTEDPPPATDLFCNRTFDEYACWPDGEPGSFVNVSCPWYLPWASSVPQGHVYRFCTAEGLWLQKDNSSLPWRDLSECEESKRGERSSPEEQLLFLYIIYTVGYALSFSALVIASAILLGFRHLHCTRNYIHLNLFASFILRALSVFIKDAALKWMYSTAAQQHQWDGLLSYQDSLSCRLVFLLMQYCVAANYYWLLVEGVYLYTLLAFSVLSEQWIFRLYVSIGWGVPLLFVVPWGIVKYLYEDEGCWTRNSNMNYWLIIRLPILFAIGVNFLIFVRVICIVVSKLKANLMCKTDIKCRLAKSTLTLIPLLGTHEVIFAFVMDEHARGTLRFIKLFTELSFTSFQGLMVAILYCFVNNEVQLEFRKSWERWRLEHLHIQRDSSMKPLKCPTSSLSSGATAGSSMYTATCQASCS
Chain of human glucagon receptor (hGCGR) (P47871 26-477): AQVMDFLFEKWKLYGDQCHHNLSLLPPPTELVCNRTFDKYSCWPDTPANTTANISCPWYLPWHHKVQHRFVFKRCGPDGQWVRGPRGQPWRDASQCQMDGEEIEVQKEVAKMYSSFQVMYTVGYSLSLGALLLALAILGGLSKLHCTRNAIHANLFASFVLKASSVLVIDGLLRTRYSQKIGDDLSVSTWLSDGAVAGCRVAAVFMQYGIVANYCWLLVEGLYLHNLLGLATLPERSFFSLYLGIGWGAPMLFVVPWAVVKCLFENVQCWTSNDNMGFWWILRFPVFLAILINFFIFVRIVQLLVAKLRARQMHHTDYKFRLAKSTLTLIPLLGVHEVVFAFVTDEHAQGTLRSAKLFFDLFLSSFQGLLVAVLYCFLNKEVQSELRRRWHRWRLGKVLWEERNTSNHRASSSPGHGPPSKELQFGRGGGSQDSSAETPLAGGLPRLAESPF

`CC(C)C[C@H](NC(=O)[C@H](Cc1c[nH]c2ccccc12)NC(=O)[C@H](CCCNC(=N)N)NC(=O)[C@@H](NC(=O)[C@H](Cc1ccccc1)NC(=O)[C@H](CC(=O)O)NC(=O)[C@H](CCC(N)=O)NC(=O)[C@H](C)NC(=O)[C@H](CCCNC(=N)N)NC(=O)[C@H](CCCCNC(=O)COCCOCCNC(=O)COCCOCCNC(=O)CC[C@H](NC(=O)CCCCCCCCCCCCCCCCC(=O)O)C(=O)O)NC(=O)[C@H](CO)NC(=O)[C@H](CC(=O)O)NC(=O)[C@H](CC(C)C)NC(=O)[C@](C)(Cc1ccccc1)NC(=O)[C@H](CCCCN)NC(=O)[C@H](CO)NC(=O)[C@@H](NC(=O)[C@H](CC(=O)O)NC(=O)[C@H](CO)NC(=O)[C@@H](NC(=O)[C@H](Cc1ccccc1)NC(=O)[C@@H](NC(=O)CNC(=O)[C@H](CCC(N)=O)NC(=O)C(C)(C)NC(=O)[C@@H](N)Cc1c[nH]cn1)[C@@H](C)O)[C@@H](C)O)C(C)C)C(C)C)C(=O)N[C@@H](CC(C)C)C(=O)N[C@@H](CCC(=O)O)C(=O)NC(C)(C)C(=O)NCC(=O)O` [Peptide 31] (H-H[Aib]QGTFTSDVSK[αMeF]LDSK([AEEA-AEEA-γGlu-C18 diacid])RAQDFVRWLLE[Aib]G-OH; N-terminus assumed): the EC50 in test [1] came out at 0.0568 nM. Moreover, in test [2], the concentration giving a half-maximal response (EC50) was determined as 0.0413 nM and the “% Relative Potency Ratio” value was determined as 2.7.

Take `CC(C)C[C@H](NC(=O)[C@H](Cc1c[nH]c2ccccc12)NC(=O)[C@H](CCC(N)=O)NC(=O)[C@@H](NC(=O)[C@H](Cc1ccccc1)NC(=O)[C@H](CC(=O)O)NC(=O)[C@H](CCCNC(=N)N)NC(=O)[C@H](C)NC(=O)[C@H](CCCNC(=N)N)NC(=O)[C@H](CCCCNC(=O)COCCOCCNC(=O)COCCOCCNC(=O)CC[C@H](NC(=O)CCCCCCCCCCCCCCCCC(=O)O)C(=O)O)NC(=O)[C@H](CCCNC(=N)N)NC(=O)[C@H](CC(=O)O)NC(=O)[C@H](CC(C)C)NC(=O)[C@](C)(Cc1ccccc1)NC(=O)[C@H](CCCCN)NC(=O)[C@H](CO)NC(=O)[C@@H](NC(=O)[C@H](CC(=O)O)NC(=O)[C@H](CO)NC(=O)[C@@H](NC(=O)[C@H](Cc1ccccc1)NC(=O)[C@@H](NC(=O)CNC(=O)[C@H](CCC(N)=O)NC(=O)C(C)(C)NC(=O)[C@@H](N)Cc1c[nH]cn1)[C@@H](C)O)[C@@H](C)O)C(C)C)C(C)C)C(=O)N[C@@H](CC(C)C)C(=O)NC(C)(C)C(=O)N[C@@H](CCC(=O)O)C(N)=O` [Peptide 473] (H-H[Aib]QGTFTSDVSK[αMeF]LDRK([AEEA-AEEA-γGlu-C18 diacid])RARDFVQWLL[Aib]E-NH2; N-terminus assumed): the EC50 in test [1] was determined as 0.0141 nM. In test [2], the EC50 was 0.0115 nM and the “% Relative Potency Ratio” value is on record as 2.4.

Take `CCCCCCCCCCCCCCCC(=O)N[C@@H](CCC(=O)N[C@@H](CCC(=O)NCCOCCOCCC(=O)NCCOCCOCCC(=O)NCCCC[C@H](NC(=O)[C@H](CO)NC(=O)[C@H](CC(=O)O)NC(=O)[C@H](CC(C)C)NC(=O)C(C)(C)NC(=O)[C@H](CCCCN)NC(=O)[C@H](CO)NC(=O)[C@@H](NC(=O)[C@H](CC(=O)O)NC(=O)[C@H](CO)NC(=O)[C@@H](NC(=O)[C@](C)(Cc1ccccc1)NC(=O)[C@H](CO)NC(=O)CNC(=O)[C@H](CCC(N)=O)NC(=O)[C@H](CO)NC(=O)[C@@H](N)Cc1c[nH]cn1)[C@@H](C)O)C(C)C)C(=O)N[C@@H](CCC(N)=O)C(=O)N[C@@H](C)C(=O)N[C@@H](CCC(N)=O)C(=O)N[C@@H](CC(=O)O)C(=O)N[C@@](C)(Cc1ccccc1)C(=O)N[C@H](C(=O)N[C@@H](CCC(N)=O)C(=O)N[C@@H](Cc1c[nH]cn1)C(=O)N[C@H](C(=O)N[C@@H](C)C(=O)N[C@@H](CC(N)=O)C(N)=O)[C@@H](C)CC)C(C)C)C(=O)O)C(=O)O` [Peptide 107] (H-HSQGS[αMeF]TSDVSK[Aib]LDSK([PEG2-PEG2-γGlu-γGlu-Palmitoyl])QAQD[αMeF]VQHIAN-NH2; N-terminus assumed): the EC50 in test [1] amounted to 0.0991 nM. Further, in test [2], the EC50 is 0.0659 nM and the “% Relative Potency Ratio” value is 3.0.

For orientation: EC50 means the midpoint of the concentration-response curve.
